# Test results from US20260274836A1, “NOVEL HEPATOSELECTIVE POLYADENYLATING POLYMERASES INHIBITORS AND THEIR METHOD OF USE” (Baruch S. Blumberg Institute, priority 2022, published 2026).
# Where “and” joins values, the source holds several entries; their conditions need not be identical. Equal entries are not always repeated.
# Experiment: Pharmacokinetics after intravenous (IV) administration, plasma
# Type: in vivo, CD1 mice
# Design: AUClast/D: unit not given here
# Details: 3 mg/kg IV; for Concentration (ng/mL): plasma
# Method: Protocol for pharmacokinetic and tissue distribution studies. The pharmacokinetics of the compounds was studied in CD1 mice after intravenous (IV) and oral gavage (PO) administration. Mouse PK studies was conducted at 3 mg/kg (IV) and 8 mg/kg (PO). Plasma samples obtained from dosed animals, at ten time points, including 5, 15 and 30 minutes and 1, 1.5, 2, 4, 6, 8 and 24 hr post-dose for processing to plasma, were prepared for analysis by means of a single step protein precipitation technique, by adding 200 μL of acetonitrile containing an IS mixture (labetalol, imipramine and diclofenac) to 50 μL aliquots of individual subject samples. Samples were mixed by vortex for homogeneity and then subjected to centrifugation at 4000 rpm for 10 min. The supernatant (200 μL) was collected and injected into the LC-MS/MS for analysis. Pharmacokinetic parameters will be calculated using established non-compartmental methods. The liver distribution of the compounds was studied in the PO group and liver tissues were collected at each time point after PO administration. Accurately weighed whole liver tissues were collected in a 50 mL tube, and 3 volumes per weight of water will be added. Tissue samples were homogenized and 50 μL of the homogenates will be processed along with plasma samples as described above.
smiles,measurement,setting,value
"COc1cc2c(cc1OCCCCCCC(=O)O)C[C@@H](C(C)C)n1cc(C(=O)O)c(=O)cc1-2 [Example 6, (S)-9-((6-carboxyhexyl)oxy)-6-isopropyl-10-methoxy-2-oxo-6,7-dihydro-2H-pyrido[2,1-a]isoquinoline-3-carboxylic acid]",AUC—% Extrap —obs,individual mice,1.59% and 1.03% and 0.662%
same,Cl_obs,individual mice,187 mL/min/kg and 166 mL/min/kg and 242 mL/min/kg
same,AUClast/D,mean,85.1
same,AUC—% Extrap —obs,mean,1.09%
same,C0,mean,2568 ng/mL
same,Cl_obs,mean,198 mL/min/kg
same,Concentration (ng/mL),"4 h, individual mice",BLOQ
same,Concentration (ng/mL),"8 h, individual mice",BLOQ
same,Concentration (ng/mL),"24 h, individual mice",BLOQ
